{"source": "patent US4812482A", "about": "“Application of α-[[(2-hydroxy-1, 1-dimethyl-ethyl) amine] methyl] benzene methanol hydrochloride (EL-508) as a drug with antiinflammatory action” (Especialidades Latinas Medicamentos Universales, S.A. …, priority 1987, dated 1989)", "key": {"[1]": {"test_system": "carrageenin oedema", "experiment": "carrageenin-induced acute oedema, oral route", "type": "in vivo", "conditions": "rat, dose which produces 50% of oedema inhibition", "description": "(§1) ED50 are indicated, these corresponding to the dose which produces 50% of oedema inhibition."}, "[2]": {"test_system": "ovoalbumin oedema", "experiment": "ovoalbumin-induced acute oedema, oral route", "type": "in vivo", "conditions": "rat, dose which produces 50% of oedema inhibition", "description": "as §1"}, "[3]": {"test_system": "carrageenin abscess", "experiment": "carrageenin abscess, oral route", "type": "in vivo", "conditions": "rat, dose which produces 50% of oedema inhibition", "description": "as §1"}, "[4]": {"test_system": "kaolin oedema", "experiment": "kaolin-induced acute oedema, oral route", "type": "in vivo", "conditions": "rat, dose which produces 50% of oedema inhibition", "description": "as §1"}, "[5]": {"test_system": "formol oedema", "experiment": "formol-induced acute oedema, oral route", "type": "in vivo", "conditions": "rat, dose which produces 50% of oedema inhibition", "description": "as §1"}, "[6]": {"test_system": "carrageenin peritonitis", "experiment": "carrageenin-induced peritonitis, oral", "type": "in vivo", "conditions": "100 mg/Kg"}, "[7]": {"test_system": "formalin peritonitis", "experiment": "formalin-induced peritonitis, oral", "type": "in vivo", "conditions": "100 mg/Kg"}, "[8]": {"test_system": "carrageenin oedema", "experiment": "carrageenin oedema, topical application", "type": "in vivo", "conditions": "6% aqueous or alcoholic solutions", "description": "(§2) Further, it is to be noted that the antiinflammatory activity of EL-508, after its topical application, in 6% aqueous or alcoholic solutions in acute experimental processes, is summarized in the following table in comparison to 6% benzidamine HC1 as a reference drug: […]"}, "[9]": {"test_system": "ovoalbumin oedema", "experiment": "ovoalbumin oedema, topical application", "type": "in vivo", "conditions": "6% aqueous or alcoholic solutions", "description": "as §2"}, "[10]": {"test_system": "kaolin oedema", "experiment": "kaolin oedema, topical application", "type": "in vivo", "conditions": "6% aqueous or alcoholic solutions", "description": "as §2"}, "[11]": {"test_system": "croton oil oedema", "experiment": "croton oil oedema, topical application", "type": "in vivo", "conditions": "6% aqueous or alcoholic solutions", "description": "as §2"}, "[12]": {"test_system": "vascular permeability (xylol)", "experiment": "vascular/capillary permeability, xylol-induced extravasation", "type": "in vivo", "conditions": "for reduction of extravasation induced by xylol: solution for topical application", "description": "(§3) In these tests Benzidamine HC1 lacked action."}, "[13]": {"test_system": "vascular permeability (chloroform)", "experiment": "vascular/capillary permeability, chloroform-induced extravasation", "type": "in vivo", "conditions": "for reduction of extravasation induced by chloroform: solution for topical application", "description": "as §3"}, "[14]": {"experiment": "acute toxicity LD50, mouse", "conditions": "in vivo"}, "[15]": {"experiment": "acute toxicity LD50, rat", "conditions": "in vivo"}, "[16]": {"test_system": "rats", "experiment": "chronic toxicity over six months, rats", "type": "in vivo", "conditions": "p.o., up to 100 mg/kg/day"}, "[17]": {"test_system": "dogs", "experiment": "chronic toxicity over six months, dogs", "type": "in vivo", "conditions": "p.o., up to 100 mg/kg/day"}, "[18]": {"test_system": "skin, genital and conjunctival mucous membranes", "design": "species or system animals", "conditions": "in vivo"}, "[19]": {"test_system": "skin, genital and conjunctival mucous membranes", "experiment": "topical tolerance in human volunteers", "type": "in vivo", "conditions": "solution"}, "[20]": {"test_system": "skin, conjunctive and vaginal mucous membranes", "experiment": "topical tolerance of the aqueous solution after repeated applications", "type": "in vivo"}, "[21]": {"test_system": "muscular-ligamentous pathological processes: luxations, sprains, contusions", "experiment": "clinical trial in muscular-ligamentous pathological processes, 6% aerosol", "type": "in vivo, human", "description": "Several clinical trials have been carried out with different pharmaceutical compositions with α-[[(2-hydroxy-1, 1-dimethyl-ethyl) amine]methyl]benzene methanol hydrocholride (EL-508) as active principle. In the 6% aerosol pharmaceutical composition the therapeutic action was studied in muscular-ligamentous pathological processes: luxations, sprains, contusions and the like."}, "[22]": {"test_system": "vaginitis of unknown ethiology or atrophic vaginitis and specific infectious vaginitis", "experiment": "clinical trials in vaginitis, vaginal solutions", "type": "in vivo, human", "conditions": "vaginal solutions at 5% and 0,2%", "experimental": "Further, as to the pharmaceutical forms of solutions for vaginal applications at 5% and 0,2% various clinical trials were performed in patients with vaginitis of unknown ethiology or atrophic vaginitis and specific infectious vaginitis."}, "[23]": {"test_system": "adrenalectomized rats", "experiment": "antiinflammatory effect in adrenalectomized rats", "type": "in vivo"}, "[24]": {"test_system": "chronic inflammatory processes", "experiment": "experimental chronic inflammatory processes", "type": "in vivo"}, "[25]": {"test_system": "peripheral blood flow", "experiment": "peripheral blood flow", "conditions": "in vivo"}, "[26]": {"experiment": "ulcerogenic action", "conditions": "in vivo"}, "[27]": {"experiment": "acute and chronic toxicity and tolerance, summary", "conditions": "in vivo"}, "[28]": {"test_system": "acute inflammation", "experiment": "experiments of acute inflammation, oral and topical, summary", "type": "in vivo", "description": "In looking for a drug with intense topical antiinflammatory activity and good tolerance, the compound α-[[(2-hydroxy-1, 1-dimethyl-ethyl) amine]methyl]benzene methanol hydrochloride was syntheiszed and developed, and its chemical structure is completely different from that of conventional non-steroid anti-inflammatory drugs."}, "[29]": {"test_system": "inflammatory processes", "experiment": "therapeutic index in the different experimental models", "type": "in vivo", "conditions": "vs reference compounds"}}, "note": "Where a name gives a salt, the structure may show the parent alone. Read-outs that look alike come from different tables or passages of the source."}
{"smiles": "CCCCC1C(=O)N(c2ccccc2)N(c2ccccc2)C1=O", "note": "[Fenilbutazone, reference compound]", "values": [{"measurement": "ED50", "setting": "[1]", "value": 200, "unit": "mg/kg"}, {"measurement": "ED50 Ovoalbumin", "setting": "[2]", "value": "Inactive"}, {"measurement": "ED50", "setting": "[3]", "value": 80, "unit": "mg/kg"}]}
{"smiles": "CC(C)(CO)NCC(O)c1ccccc1", "note": "(stereo not drawn) [EL-508, α-[[(2-hydroxy-1,1-dimethyl-ethyl)amine]methyl]benzene methanol hydrochloride]", "values": [{"measurement": "ED50", "setting": "[1]", "value": 29.8, "unit": "mg/kg"}, {"measurement": "ED50", "setting": "[4]", "value": 44.9, "unit": "mg/kg"}, {"measurement": "ED50", "setting": "[2]", "value": 16.7, "unit": "mg/kg"}, {"measurement": "ED50", "setting": "[5]", "value": 21.7, "unit": "mg/kg"}, {"measurement": "ED50", "setting": "[3]", "value": 9.4, "unit": "mg/kg"}, {"measurement": "percentage of inhibition, Carrageenin perit.", "setting": "[6]", "value": "70,8%"}, {"measurement": "activity on carrageenin peritonitis compared with reference drugs", "setting": "[6]; equal doses", "value": "more active than the reference drugs"}, {"measurement": "percentage of inhibition, Formalin perit.", "setting": "[7]", "value": "28,1%"}, {"measurement": "activity on formalin-induced peritonitis compared with reference drugs", "setting": "[7]; equal doses", "value": "more active than the reference drugs"}, {"measurement": "Inhibition % of oedemas, carrageenin", "setting": "[8]", "value": 48, "unit": "%"}, {"measurement": "Inhibition % of oedemas, ovoalbumin", "setting": "[9]", "value": "40,6%"}, {"measurement": "Inhibition % of oedemas, Kaolin", "setting": "[10]", "value": "47,5%"}, {"measurement": "Inhibition % of oedemas, Croton oil", "setting": "[11]", "value": 30, "unit": "%"}, {"measurement": "activity against capillary permeability increases induced by xylol", "setting": "[12]; all the administration routes", "value": "highly active"}, {"measurement": "reduction of extravasation induced by xylol", "setting": "[12]", "value": 50, "unit": "%"}, {"measurement": "activity against capillary permeability increases induced by chloroform", "setting": "[13]; all the administration routes", "value": "highly active"}, {"measurement": "reduction of extravasation induced by chloroform", "setting": "[13]", "value": 50, "unit": "%"}, {"measurement": "LD50", "setting": "[14]; ip", "value": 295, "unit": "mg/kg"}, {"measurement": "LD50", "setting": "[14]; iv", "value": 79, "unit": "mg/kg"}, {"measurement": "LD50", "setting": "[14]; po", "value": 1020, "unit": "mg/kg"}, {"measurement": "LD50", "setting": "[15]; ip", "value": 350, "unit": "mg/kg"}, {"measurement": "LD50", "setting": "[15]; iv", "value": 80, "unit": "mg/kg"}, {"measurement": "LD50", "setting": "[15]; po", "value": 2080, "unit": "mg/kg"}, {"measurement": "undesirable effects in chronic toxicity study", "setting": "[16]", "value": "no undesirable effects attributable to the product"}, {"measurement": "undesirable effects in chronic toxicity study", "setting": "[17]", "value": "no undesirable effects attributable to the product"}, {"measurement": "topical tolerance", "setting": "[18]", "value": "perfectly tolerated"}, {"measurement": "topical tolerance", "setting": "[19]", "value": "perfectly tolerated"}, {"measurement": "topical tolerance", "setting": "[20]", "value": "well tolerated"}, {"measurement": "therapeutic action", "setting": "[21]", "value": "therapeutic action higher than pyiridil-3-methyl amine salicylate and placebo"}, {"measurement": "efficacy in vaginitis", "setting": "[22]", "value": "more efficent in these indications than iodic povidone and placebo"}, {"measurement": "antiinflammatory effect", "setting": "[23]", "value": "antiinflammatory effect is direct, without central or hormaonal stimulus"}, {"measurement": "activity on primary inflammatory phenomena", "setting": "[24]", "value": "demonstrated its activity on primary inflammatory phenomena"}, {"measurement": "effect on peripheral blood flow", "setting": "[25]", "value": "did not modify at all peripheral blood flow"}, {"measurement": "ulcerogenic action", "setting": "[26]", "value": "slight ulcerogenic action"}, {"measurement": "acute and chronic toxicity", "setting": "[27]", "value": "acute and chronic toxicity was very low"}, {"measurement": "systematic and topical tolerance", "setting": "[27]", "value": "systematic and topical tolerance has been demonstrated"}, {"measurement": "undesirable side effects", "setting": "[27]", "value": "no undesirable side effects"}, {"measurement": "antiinflammatory activity", "setting": "[28]; oral and topical route, acute inflammation", "value": "great antiinflammatory activity"}, {"measurement": "antiinflammatory effect compared with reference products", "setting": "[28]; vs fenylbutazone, pyridil-3-methylamine salicilate, benzidamine salicilate, etc.", "value": "higher than the referenced products used"}, {"measurement": "therapeutic indices", "setting": "[29]", "value": "considerably higher than for the reference compounds"}]}
{"smiles": "CN(C)CCCOc1nn(Cc2ccccc2)c2ccccc12", "note": "[Benzidamine HCl, reference compound]", "values": [{"measurement": "percentage of inhibition, Carrageenin perit.", "setting": "[6]", "value": "31,3%"}, {"measurement": "percentage of inhibition, Formalin perit.", "setting": "[7]", "value": "15,6%"}, {"measurement": "Inhibition % of oedemas, carrageenin", "setting": "[8]", "value": 7, "unit": "%"}, {"measurement": "Inhibition % of oedemas, ovoalbumin", "setting": "[9]", "value": "42,0%"}, {"measurement": "Inhibition % of oedemas, Kaolin", "setting": "[10]", "value": 0, "unit": "%"}, {"measurement": "Inhibition % of oedemas, Croton oil", "setting": "[11]", "value": 44, "unit": "%"}, {"measurement": "reduction of extravasation induced by xylol", "setting": "[12]", "value": "lacked action"}, {"measurement": "reduction of extravasation induced by chloroform", "setting": "[13]", "value": "lacked action"}]}
{"smiles": "CCCCC1C(=O)N(c2ccccc2)N(c2ccc(O)cc2)C1=O", "note": "(centres unmarked) [Oxyphenylbutazone, reference compound]", "values": [{"measurement": "percentage of inhibition, Carrageenin perit.", "setting": "[6]", "value": "58,8%"}, {"measurement": "percentage of inhibition, Formalin perit.", "setting": "[7]", "value": "7,5%"}]}
